From patent publication US11135163B2, “Peptide hydrogel properties and its applications” (Kansas State University Research Foundation, priority 2014, dated 2021)

What was measured:
[1] = h9e-MSC medium hydrogel rheology; assay type: physicochemical
Procedure: Two different types of stem cell mediums were selected for this test. One is a low glucose DMEM medium with 2% (v/v) Fetal Bovine Serum (FBS) for Mesenchymal Stromal Cell (MSC medium). The other one is a N2B27 supplemented serum-free 2i medium with 0.5% (v/v) Bovine Serum Albumin (BSA) for rat Embryonic Stem Cell (ESC, 2i medium). The hydrogel formation process was monitored under a time sweep rheological test for 1 hour. The special shear-thinning and self-healing property of h9e peptide hydrogel was also tested. […] In addition, the stability of hydrogel as well as the peptide solution before the hydrogel formation was also tested.
The h9e peptide was synthesized according to the method mentioned above. Lyophilized peptide was added to 100 mM sodium bicarbonate and completely dissolved by magnetic stirring for 3 hours with a final peptide concentration of 10 mM. For hydrogelation, peptide solution was added into MSC medium or 2i medium and the mixture was hand-shaken for about 10 seconds or gently pipette mixed 3 times. The final peptide concentrations were 1, 2, and 3 mM.
The storage and loss moduli (G′ and G″, respectively) of h9e hydrogels were determined on a C-VOR 150 rheometer system (Malvern instruments, Malvern, Worcestershire WR141XZ, United Kingdom) with a 20-mm diameter parallel plate geometry and 500 μm gap size at 37° C. The methods for hydrogel formation test and shear-thinning and self-healing test were the same as the methods of cancer cell medium mentioned above. After 24 hours of hydrogel formation, 2 mM peptide hydrogel was diluted 20 fold by adding cell culture medium and thorough mixing by pipette. The diluted solution was transferred to rheometer system and tested under 1 Hz frequency and 1% shear strain at 4° C. for 1 hour.

female mice of FVB = test: Immune response after subcutaneous injection of hydrogel in mice; assay type: in vivo, mouse
Procedure: Hydrogel: 1% h9e peptide was prepared in sodium bicarbonate solution, and 1% BSA was prepared in PBS solution as trigger solution. The h9e peptide solution and BSA solution was mixed at 1:1 volume ratio, and incubated at 37° C. for 30 min to prepare hydrogel with 0.5% h9e peptide concentration and 0.5% BSA with a gel strength of about 450 Pa.
Experiment: In trials #1 and #2, healthy female mice of FVB 6-15 week old were injected subcutaneously in the inguinal region with 100 or 200 uL of the hydrogel or control solutions in a blinded study. Weight and external body temperature were measured daily for up to 2 weeks.
Mammary fat pads from the inguinal region were removed at necropsy. Tissues were fixed with 10% formalin and processing for a 5 um thickness sectioning. Samples were stained with hematoxylin and eosin (H&E). Hydrogel trial 3 was completed in the same manner described above with the following exceptions. 200 uL of hydrogel or control solutions were injected subcutaneously on the back of the animal.
Microscope slide preparation: Samples of the control, and hydrogel treated tissues were submitted for histopath processing at Diagnostic Laboratory at KSU Veterinary School in Mosier Hall. Slides and paraffin blocks were labeled 1 as control and 4 as hydrogel treated, respectively. Adipose tissue samples were processed on the Sakua Tissue-Tek VIP 6, model #VIP6-A1. Then, the samples were then embedded using the Sakura Tissue-Tek Tissue Embedding Console System model #4710. For microscope slide preparation, the paraffin blocks were cut on a 1215 Leitz Rotary Microtome and sectioned at 5 microns. Sections were then mounted on a microscope slide from a water bath. H&E staining of the slides done on an automated stainer, Leica Autostainer XL, model #ST5060. Lastly, the stained slides are covered slipped by an automatic coverslippper, Leica CV5030.
Inflammatory analysis: The fixed tissues of animals without treatment, treated with PBS buffer and h9e hydrogel were further analyzed for inflammatory effects including VWF8 (blood vessel), Arginase I (wound healing macrophage), Fspl and α-smooth muscle actin (fibroblast), CCL2 (pro-inflammatory cytokine), and TGF-beta (immunosuppressive cytokine). 796 (FVB normal mammary gland) was used as negative control. Image J arbitrary unit was used to evaluate these tests using Image J software.

[2] = Oxygen transmission rate (OTR) of hydrogel; assay type: physicochemical
Procedure: Hydrogel: 1% h9e peptide was prepared in sodium bicarbonate solution, and 1% BSA was prepared in PBS solution as trigger solution. The h9e peptide solution and BSA solution was mixed at 1:1 volume ratio, and incubated at 37 C for 30 min to prepare hydrogel with 0.5% h9e peptide concentration and 0.5% BSA with a gel strength of about 450 Pa.
Oxygen transmission rate (OTR): The OTR of hydrogels is another important property for in vitro tissue and organ regeneration process. Standard PGmatrix hydrogels was used in this experiment. OTR is the steady state rate at which oxygen gas permeates through a material at specified conditions of temperature and relative humidity. Values are expressed in cc/m2/24 hr in metric units determined by MOCON, Inc. (Minneapolis, […].) for OTR measurement using OX-TRAN instrument according to the standard method. Both challenge gas (oxygen) and sweeper gas (nitrogen) was held at relatively humidity of 100% to avoid gel drying, and temperature will be kept at ambient. 3.75 ml hydrogel was used and spread into thin film to cover the 5 cm^2-area. Experiments were duplicated twice.

[3] = Hydrogelation and dynamic rheology of h9e in MEM; assay type: physicochemical; conditions: MEM without serum
[4] = Instantaneous gelation time sweep of peptide sequences 1, 3 and 4; assay type: physicochemical; conditions: triggered with 100 mM CaCl2 solution (FIG. 12, 13)
Procedure: Similar to the methods used in U.S. 2013/0018004. Hydrogels were prepared with peptide 1, 3, and 4 alone, or mixture of peptide sequence 1 and 4 at 1:1 ratio. Hydrogels were triggered by calcium ions and BSA alone or co-trigger (calcium ions+BSA).

With “H-FLIVIGSIIGPGGDGPGGD-NH2 [h9e, FLIVIGSIIGPGGDGPGGD]” the “stable G′” value ([1]; 1 mM h9e-MSC hydrogel) was 70 Pa, the “G′ under 500% shear strain” value ([1]; 2 mM h9e-MSC hydrogel) was “lower than 0.2 Pa” and the “stable G′” value ([1]; 2 mM h9e-MSC hydrogel) was 350 Pa. The gel strength recovered ([1]; 2 mM h9e-MSC hydrogel, 1 min after shear ceased) was “greater than 90%”, the mechanical strength recovered ([1]; 2 mM h9e-MSC hydrogel, within a few minutes of 1% shear strain recovery test) was 100% and the “stable G′” value ([1]; 3 mM h9e-MSC hydrogel) was 800 Pa. The “G′ and G″ after 20-fold dilution” value ([1]; diluted from 2 mM to 0.1 mM, 1 hour test) was “lower than 4 Pa”, the “inflammatory effects compared to controls” value (female mice of FVB; 0.5% h9e/0.5% BSA hydrogel, subcutaneous, mice) was “No significant inflammatory effects” and the “histological images, hydrogel treated versus control” value (female mice of FVB; H&E staining) was “no significant difference”. For the same substance, the “absorption of hydrogel at necropsy” value (female mice of FVB; trial 3, 200 uL subcutaneously on the back) was “complete absorption of hydrogel”, the “daily activity of treated animals” value (female mice of FVB; up to 2 weeks) was “same normal daily activity” and the OTR ([2]; 0.5% h9e, 0.5% BSA hydrogel, 100% relative humidity, ambient temperature) was 3,984 cc/m^2-day. For the same substance, the OT rate ([2]; h9e hydrogel at 0.5% peptide concentration) was “about 3,984 cc/m^2 per day”, the “solution to hydrogel transition” value [3] was “did not stimulate this solution to hydrogel transitions effectively” and the “final gel strength after 30 minute gelation time sweep” value [4] was 240 Pa.
